Measurements as given in PubChem BioAssay AID1845199 (Molecular Pharmacology Branch, DTP, NCI, 2023).

Test system: 556581-035-R-J1 tumor spheroid viability, % test/control
Assay: Anticancer human tumor 556581-035-R-J1 patient-derived ovarian carcinoma cell line growth inhibition
Details: spheroids with HUVEC and MSC; for IC50: curve of first compound; for viability, T/C: stronger effect = lower value
Source text: Multicellular complex tumor spheroid response to DNA repair inhibitors in combination with DNA-damaging drugs
This study explores the anticancer activities of DNA-damaging drugs and inhibitors of DNA damage repair, both as single agents and in combinations. Complex tumor spheroids comprised of malignant cells, endothelial cells and mesenchymal stem cells served as an in vitro model for human solid tumors. This model system incorporates physiologically relevant features and patient-derived or established malignant cell lines with clinically relevant genetic alterations from many tumor types. Twenty-six patient-derived or established malignant cell lines were evaluated representing sarcoma, melanoma, small cell lung cancer (SCLC), non-small cell lung cancer (NSCLC), as well as bladder, ovarian and pancreatic cancers. The concentration ranges selected for each drug and investigational agent were based upon clinically achievable concentrations if the clinical Cmax of the agent was known.
Compounds. The drugs and compounds olaparib (NSC753686), talazoparib (NSC767125), berzosertib (NSC777718), elimusertib (NSC800525), nedisertib (NSC802822), VX-984 (NSC792969), AZD-1390 (NSC803789), temozolomide (NSC362856), topotecan (NSC609699), trabectedin (NSC813783), staurosporine (NSC755774), and gemcitabine (NSC613327) were obtained from the National Cancer Institute (NCI) Developmental Therapeutics Program Chemical Repository. The FDA-approved anticancer drug set is available from the Developmental Therapeutics Program at https://dtp.cancer.gov/organization/dscb/obtaining/available_plates.htm. […] The stock solutions were prepared in dimethyl sulfoxide (DMSO, Sigma-Aldrich, St. Louis, MO, cat. D2650) at 400-fold the tested concentration and stored at -70 degrees C. Prior to their use, the stock solutions were diluted in fresh medium and the final DMSO concentration in the assay was 0.25% (v/v). All drugs and investigational agents were tested over a range starting from a high concentration at or near the clinical Cmax and decreasing in half-log increments. If the clinical Cmax for an agent had not been determined, the highest concentration tested was 10 microM.
Cell Lines. The patient-derived cancer cell (PDC) lines: 156681-154-R-J1-PDC, 283228-195-R-J1-PDC, 287954-098-R-J1-PDC, 292921-168-R-J2-PDC, 349418-098-R-PDC, 425362-245-T-J1-PDC, 556581-035-R-J1-PDC, and BL0293-F563-PDC were received from the NCI Patient-Derived Models Repository (PDMR, https://pdmr.cancer.gov). The established cell lines HS-SY-2 (RRID:CVCL_8719), MPNST, and SYO-1 (RRID:CVCL_7146) were obtained from the Sloan Kettering Institute. The alveolar soft parts sarcoma cell line ASPS-1 (RRID:CVCL_S738) was established at the NCI and grown from internal seed stocks. The following established cell lines were purchased from the American Type Culture Collection (ATCC, Manassas, VA): G-401 (ATCC, cat. CRL-1441, RRID:CVCL_0270), SW982 (ATCC, cat. HTB-93, RRID:CVCL_1734), VA-ES-BJ (ATCC, cat. CRL-2138, RRID:CVCL_1785), NCI-H719 (ATCC, cat. CRL-5837, RRID:CVCL_1582), NCI-H196 (ATCC, cat. CRL-5823, RRID:CVCL_1509), NCI-H841 (ATCC, cat. CRL-5845, RRID:CVCL_1595), NCI-H1618 (ATCC, cat. CRL-5879, RRID:CVCL_1480), NCI-H1876 (ATCC, cat. CRL-5902, RRID:CVCL_1503), DMS 114 (ATCC, cat. CRL-2066; RRID:CVCL_1174), NCI-H211 (ATCC, cat. CRL-5824; RRID:CVCL_1529), and SW 1271 (ATCC, cat. CRL-2177, RRID:CVCL_1716). The small cell lung cancer cell line COR-L88 was purchased from Sigma-Aldrich (cat. 92031917-1VL, RRID:CVCL_1141). The non-small cell lung cancer cell lines NCI-H226 (RRID:CVCL_1544) and NCI-H322M (RRID:CVCL_1557) were established at the NCI and grown from internal seed stocks. Pooled donor human umbilical vein endothelial cells (HUVEC, Lonza, cat. CC-2519) and human mesenchymal stem cells (hMSC, Lonza, cat. PT-2501) were purchased from Lonza (Walkersville, MD).
Cell Culture. All cells were maintained in an incubator at 37 degrees C and 5% CO2 with 95% humidity. […]

[1] = second compound 0.003 µM, first compound 0.00949 µM
[2] = second compound 0.003 µM, first compound 0.03 µM
[3] = second compound 0.003 µM, first compound 0.0949 µM
[4] = second compound 0.003 µM, first compound 0.3 µM
[5] = second compound 0.003 µM, first compound 0.949 µM
[6] = second compound 0.003 µM, first compound 3 µM
[7] = second compound 0.00949 µM, first compound 0.00949 µM
[8] = second compound 0.00949 µM, first compound 0.03 µM
[9] = second compound 0.00949 µM, first compound 0.0949 µM
[10] = second compound 0.00949 µM, first compound 0.3 µM
[11] = second compound 0.00949 µM, first compound 0.949 µM
[12] = second compound 0.00949 µM, first compound 3 µM
[13] = second compound 0.03 µM, first compound 0.00949 µM
[14] = second compound 0.03 µM, first compound 0.03 µM
[15] = second compound 0.03 µM, first compound 0.0949 µM
[16] = second compound 0.03 µM, first compound 0.3 µM
[17] = second compound 0.03 µM, first compound 0.949 µM
[18] = second compound 0.03 µM, first compound 3 µM
[19] = second compound 0.0949 µM, first compound 0.00949 µM
[20] = second compound 0.0949 µM, first compound 0.03 µM
[21] = second compound 0.0949 µM, first compound 0.0949 µM
[22] = second compound 0.0949 µM, first compound 0.3 µM
[23] = second compound 0.0949 µM, first compound 0.949 µM
[24] = second compound 0.0949 µM, first compound 3 µM
[25] = second compound 0.3 µM, first compound 0.00949 µM
[26] = second compound 0.3 µM, first compound 0.03 µM
[27] = second compound 0.3 µM, first compound 0.0949 µM
[28] = second compound 0.3 µM, first compound 0.3 µM
[29] = second compound 0.3 µM, first compound 0.949 µM
[30] = second compound 0.3 µM, first compound 3 µM
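Also: spheroids exposed to compounds for 7 days before viability read.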

CNCc1ccc(-c2cc(-c3nc(-c4ccc(S(=O)(=O)C(C)C)cc4)cnc3N)on2)cc1 + CC[C@@]1(O)C(=O)OCc2c1cc1n(c2=O)Cc2cc3c(CN(C)C)c(O)ccc3nc2-1
IC50 (second compound 0.003 µM): 1.38 µM | IC50 (second compound 0.00949 µM): 1.17 µM | IC50 (second compound 0.03 µM): 0.854 µM | IC50 (second compound 0.0949 µM): 0.27 µM | IC50 (second compound 0.3 µM): < 0.00949 µM | viability, T/C [1]: 101% | viability, T/C [2]: 94.6% | viability, T/C [3]: 100% | viability, T/C [4]: 104% | viability, T/C [5]: 67.6% | viability, T/C [6]: 13.7% | viability, T/C [7]: 88.7% | viability, T/C [8]: 90.5% | viability, T/C [9]: 87.1% | viability, T/C [10]: 93.6% | viability, T/C [11]: 59% | viability, T/C [12]: 9.61% | viability, T/C [13]: 83.7% | viability, T/C [14]: 84.7% | viability, T/C [15]: 92.4% | viability, T/C [16]: 75% | viability, T/C [17]: 47.8% | viability, T/C [18]: 9.43% | viability, T/C [19]: 64.4% | viability, T/C [20]: 67% | viability, T/C [21]: 59% | viability, T/C [22]: 47.6% | viability, T/C [23]: 31.3% | viability, T/C [24]: 1.58% | viability, T/C [25]: 16.8% | viability, T/C [26]: 15.9% | viability, T/C [27]: 14.3% | viability, T/C [28]: 11.8% | viability, T/C [29]: 8.45% | viability, T/C [30]: 0.85%

Cn1ncnc1[C@H]1c2n[nH]c(=O)c3cc(F)cc(c23)N[C@@H]1c1ccc(F)cc1 + CC[C@@]1(O)C(=O)OCc2c1cc1n(c2=O)Cc2cc3c(CN(C)C)c(O)ccc3nc2-1
IC50 (second compound 0.003 µM): > 3 µM | IC50 (second compound 0.00949 µM): > 3 µM | IC50 (second compound 0.03 µM): 1.3 µM | IC50 (second compound 0.0949 µM): 0.0675 µM | IC50 (second compound 0.3 µM): < 0.00949 µM | viability, T/C [1]: 105% | viability, T/C [2]: 97.7% | viability, T/C [3]: 93.2% | viability, T/C [4]: 94.3% | viability, T/C [5]: 71.1% | viability, T/C [6]: 57.1% | viability, T/C [7]: 88.2% | viability, T/C [8]: 81.7% | viability, T/C [9]: 82.2% | viability, T/C [10]: 71.4% | viability, T/C [11]: 68.5% | viability, T/C [12]: 49.4% | viability, T/C [13]: 70% | viability, T/C [14]: 67.2% | viability, T/C [15]: 63.2% | viability, T/C [16]: 64.9% | viability, T/C [17]: 52.9% | viability, T/C [18]: 39.8% | viability, T/C [19]: 57.9% | viability, T/C [20]: 51.3% | viability, T/C [21]: 45% | viability, T/C [22]: 44.2% | viability, T/C [23]: 36.2% | viability, T/C [24]: 19.2% | viability, T/C [25]: 13.2% | viability, T/C [26]: 13.1% | viability, T/C [27]: 12.7% | viability, T/C [28]: 11% | viability, T/C [29]: 9.44% | viability, T/C [30]: 6.18%

O=C(c1cc(Cc2n[nH]c(=O)c3ccccc23)ccc1F)N1CCN(C(=O)C2CC2)CC1 + CC[C@@]1(O)C(=O)OCc2c1cc1n(c2=O)Cc2cc3c(CN(C)C)c(O)ccc3nc2-1
IC50 (second compound 0.003 µM): > 30 µM | IC50 (second compound 0.00949 µM): > 30 µM | IC50 (second compound 0.03 µM): > 30 µM | IC50 (second compound 0.0949 µM): 6.48 µM | IC50 (second compound 0.3 µM): < 0.0949 µM | viability, T/C [3]: 103% | viability, T/C [4]: 104% | viability, T/C [5]: 103% | viability, T/C [6]: 95.4% | viability, T/C (second compound 0.003 µM, first compound 9.49 µM): 83.3% | viability, T/C (second compound 0.003 µM, first compound 30 µM): 68.5% | viability, T/C [9]: 93% | viability, T/C [10]: 95.8% | viability, T/C [11]: 92.7% | viability, T/C [12]: 86.9% | viability, T/C (second compound 0.00949 µM, first compound 9.49 µM): 77.7% | viability, T/C (second compound 0.00949 µM, first compound 30 µM): 68% | viability, T/C [15]: 74.8% | viability, T/C [16]: 77.9% | viability, T/C [17]: 75.7% | viability, T/C [18]: 72.9% | viability, T/C (second compound 0.03 µM, first compound 9.49 µM): 63.7% | viability, T/C (second compound 0.03 µM, first compound 30 µM): 55.1% | viability, T/C [21]: 57.2% | viability, T/C [22]: 58.2% | viability, T/C [23]: 58.3% | viability, T/C [24]: 53.4% | viability, T/C (second compound 0.0949 µM, first compound 9.49 µM): 47.2% | viability, T/C (second compound 0.0949 µM, first compound 30 µM): 38.6% | viability, T/C [27]: 16.4% | viability, T/C [28]: 17.7% | viability, T/C [29]: 15% | viability, T/C [30]: 14.6% | viability, T/C (second compound 0.3 µM, first compound 9.49 µM): 12.4% | viability, T/C (second compound 0.3 µM, first compound 30 µM): 12.9%
